Among the test systems are OVCAR-5; SNB-19; SNB-78; IGROV-1; SF-295; OVCAR-8; NCI-H460; SK-MEL-28; U-251; SN12C; CAKI-1; LOX IMVI; NCI-H226; SF-539; DLD-1; ACHN; Malme-3M; SK-MEL-2; DU-145; MDA-N.
Holding throughout (assay): NCI-60 cell line screen, 48 h

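Step 1: Grow cells in 96-well plates. Step 2: Expose to compound for 48 hours at 5 concentrations. Step 3: Interpolate endpoints linearly; if unreached, use highest concentration. At the GI50, growth is halved.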 Calls of active or inactive are those of the source. Rule as the data show it: active = GI50 up to about 1.1 µM and inactive = higher. Some results are limits rather than exact numbers.

With `CC(=O)/C=C/c1cccc(N=S)c1`, the GI50 in the test with OVCAR-5 is > 69 µM (inactive); with SNB-19, > 43.2 µM (inactive); with SNB-78 it was 32.8 µM (inactive); in the test on IGROV-1, 19.2 µM (inactive); in the test with SF-295, 15.2 µM (inactive); with OVCAR-8, 12.2 µM (inactive). Further, the GI50 is > 36.9 µM (inactive) with NCI-H460; 16.5 µM (inactive) in the test on SK-MEL-28; 6.64 µM (inactive) in the test with U-251; 25.6 µM (inactive) in the test on SN12C; > 50.9 µM (inactive) in the test on CAKI-1; 2.39 µM (inactive) with LOX IMVI. For the same compound, the GI50 is 46 µM (inactive) with NCI-H226; 5.9 µM (inactive) in the test with SF-539; 4.88 µM (inactive) in the test on DLD-1; > 38.4 µM (inactive) in the test on ACHN; > 73.8 µM (inactive) with Malme-3M.
In the case of `C=CN1C(=O)[C@H](Oc2ccccc2)[C@@H]1c1ccccc1`, the GI50 in the test with OVCAR-5 was > 100 µM (inactive); in the test on SNB-19, 33.6 µM (inactive); in the test with SK-MEL-2 it was 12.9 µM (inactive); with SNB-78, 43.5 µM (inactive); in the test on IGROV-1, > 100 µM (inactive); in the test on SF-295 it was 26.1 µM (inactive). Besides, the GI50 is 23.8 µM (inactive) in the test with OVCAR-8; 30.3 µM (inactive) with NCI-H460; 36.4 µM (inactive) in the test on SK-MEL-28; 36.4 µM (inactive) in the test with U-251; 32.7 µM (inactive) in the test on SN12C; 44.4 µM (inactive) in the test with NCI-H226. The GI50 in the test on SF-539 is 16.2 µM (inactive); in the test on DLD-1, 28.5 µM (inactive); in the test on ACHN, 32 µM (inactive); in the test with Malme-3M it was 63.2 µM (inactive).
As for `CC1=NN(C(=O)c2ccc(Cl)cc2)C(=O)/C1=C/c1c(O)cc(O)c2ccccc12`, the GI50 in the test with OVCAR-5, in the test with SNB-19, with SK-MEL-2, with SNB-78, in the test on IGROV-1 and in the test with SF-295 was > 100 µM (inactive) each time. In addition, the GI50 in the test on OVCAR-8, in the test with NCI-H460, with SK-MEL-28, in the test on U-251, in the test on SN12C and in the test with CAKI-1 was > 100 µM (inactive) each time. Further, the GI50 in the test on LOX IMVI, with SF-539, in the test on DLD-1, in the test with ACHN and in the test on Malme-3M was > 100 µM (inactive) each time.
Turning to `CCN(CC)c1ccc(/N=N/c2ccc(-c3nc4cccnc4s3)cc2)cc1`, the GI50 with OVCAR-5, in the test with SNB-19, in the test on SK-MEL-2, in the test with SNB-78, in the test with IGROV-1 and in the test with SF-295 was > 100 µM (inactive) in each case. In addition, the GI50 was > 100 µM (inactive) with OVCAR-8; 60.3 µM (inactive) in the test on NCI-H460; > 100 µM (inactive) in the test with SK-MEL-28; > 100 µM (inactive) in the test on U-251; > 100 µM (inactive) with SN12C; > 100 µM (inactive) in the test with CAKI-1. The GI50 in the test on NCI-H226, in the test with DLD-1, in the test on ACHN and with Malme-3M was > 100 µM (inactive) each time.
For the compound `Nc1ncnc2c1ncn2C1OC(CSCc2ccc(Cl)cc2)C(O)C1O` (configuration not stated), the GI50 is > 100 µM (inactive) with OVCAR-5; 35.9 µM (inactive) in the test on SNB-19; 25.5 µM (inactive) in the test on SK-MEL-2; 68.9 µM (inactive) in the test on SNB-78; 89.3 µM (inactive) in the test on IGROV-1; 50.9 µM (inactive) in the test on SF-295. Moreover, the GI50 in the test on OVCAR-8 is 42.7 µM (inactive); with NCI-H460, > 100 µM (inactive); in the test with U-251 it was 66.2 µM (inactive); with SN12C, 45.7 µM (inactive); in the test on CAKI-1, 21.5 µM (inactive); in the test on LOX IMVI, 37.3 µM (inactive). In addition, the GI50 in the test with SF-539 was 29.4 µM (inactive); in the test with DLD-1, 14.6 µM (inactive); in the test on ACHN it was 34.9 µM (inactive); with Malme-3M, 56.9 µM (inactive).
In the case of `O=C1c2ccccc2C(=O)N1C/C=N/NS(=O)(=O)c1cccc([N+](=O)[O-])c1`, the GI50 in the test with SNB-19, in the test on SK-MEL-2, with IGROV-1, in the test with SF-295, in the test on OVCAR-8 and in the test with NCI-H460 was > 100 µM (inactive) each time. Moreover, the GI50 in the test with U-251, in the test on SN12C, with CAKI-1, in the test with LOX IMVI, in the test on SF-539 and in the test on DLD-1 was > 100 µM (inactive) in each case. For the same compound, the GI50 with ACHN and in the test with Malme-3M was > 100 µM (inactive) in each case.
With `CCC(=O)c1c(NOC2OC(COC(C)=O)C(OC(C)=O)C(OC(C)=O)C2OC(C)=O)nc(OC)n(C)c1=O` (configuration not stated), the GI50 in the test with OVCAR-5, with SNB-19, with SK-MEL-2, with SNB-78, with IGROV-1 and in the test on SF-295 was > 100 µM (inactive) each time. Further, the GI50 in the test on OVCAR-8, with NCI-H460, in the test with SK-MEL-28, in the test with U-251, in the test with SN12C and in the test with LOX IMVI was > 100 µM (inactive) throughout. The GI50 in the test on NCI-H226 is 50.1 µM (inactive); in the test on SF-539, 69.2 µM (inactive); with DLD-1, > 100 µM (inactive); with ACHN, > 100 µM (inactive).
In the case of `CCOC(=O)NC(=O)c1cn(CCCOC(=O)NCCCCCCNC(=O)OCCCn2cc(C(=O)NC(=O)OCC)c(=O)[nH]c2=O)c(=O)[nH]c1=O`, the GI50 in the test with SNB-19 is 28.6 µM (inactive); in the test on SNB-78 it was 36.7 µM (inactive); in the test with IGROV-1, 41.9 µM (inactive); in the test with SF-295, 22.5 µM (inactive); in the test with OVCAR-8, 31.3 µM (inactive); with NCI-H460, 77.4 µM (inactive). For the same compound, the GI50 with SK-MEL-28 is 28.3 µM (inactive); with U-251, 18.1 µM (inactive); with SN12C, 47.6 µM (inactive); with CAKI-1, 11.9 µM (inactive); with LOX IMVI it was 43.1 µM (inactive); in the test on SF-539, 18.5 µM (inactive). The GI50 with DLD-1 is 31.3 µM (inactive); in the test on ACHN it was 18.7 µM (inactive).
With `Cn1cc(NC(=O)c2cc(NC(=O)CCCCCC(=O)Nc3cc(C(=O)Nc4cc(C(=O)NCCC(=N)N)n(C)c4)n(C)c3)cn2C)cc1C(=O)NCCC(=N)N`, the GI50 with OVCAR-5 is > 100 µM (inactive); in the test with SNB-19 it was > 100 µM (inactive); in the test with SNB-78 it was > 100 µM (inactive); in the test on IGROV-1, 98.6 µM (inactive); in the test with SF-295, > 100 µM (inactive); with OVCAR-8 it was > 100 µM (inactive). In addition, the GI50 was 26.4 µM (inactive) in the test on NCI-H460; 25.2 µM (inactive) in the test with SK-MEL-28; > 100 µM (inactive) in the test with U-251; > 100 µM (inactive) in the test on SN12C; > 100 µM (inactive) in the test with CAKI-1; 46.1 µM (inactive) with LOX IMVI. Further, the GI50 with SF-539 was > 100 µM (inactive); in the test with DLD-1, > 100 µM (inactive); with ACHN, > 100 µM (inactive); in the test on Malme-3M it was 9.64 µM (inactive).
As for `N#C/C(=C/c1cccc2ccccc12)C(=O)c1ccccc1`, the GI50 is 23.6 µM (inactive) with OVCAR-5; 19.9 µM (inactive) with SNB-19; 18.9 µM (inactive) in the test with SK-MEL-2; 42.9 µM (inactive) in the test with SNB-78; 24.3 µM (inactive) in the test with IGROV-1; 20 µM (inactive) with SF-295. The GI50 is 33 µM (inactive) with OVCAR-8; 27.5 µM (inactive) with NCI-H460; 13.9 µM (inactive) in the test on SK-MEL-28; 19 µM (inactive) with U-251; 33.2 µM (inactive) in the test on SN12C; 23.9 µM (inactive) in the test on CAKI-1. In addition, the GI50 with LOX IMVI is 19.5 µM (inactive); in the test on NCI-H226 it was 17.7 µM (inactive); in the test on SF-539 it was 17.7 µM (inactive); in the test with ACHN it was > 10 µM (inactive); with Malme-3M it was 21.5 µM (inactive).
On to `COc1cc2c(c(OC)c1OC)-c1ccc(SC)c(=O)cc1[C@@H](NC(=O)c1cccc([N+](=O)[O-])c1)CC2`, for which the GI50 was > 100 µM (inactive) in the test with OVCAR-5; 0.0243 µM (active) with SNB-78; 0.0288 µM (active) in the test on IGROV-1; 0.0208 µM (active) with SF-295; 0.024 µM (active) in the test on OVCAR-8; 0.0414 µM (active) in the test on SK-MEL-28. Also, the GI50 was 0.0221 µM (active) in the test on U-251; 0.0282 µM (active) with SN12C; 0.049 µM (active) in the test on CAKI-1; < 0.01 µM (active) in the test on NCI-H226; 0.0171 µM (active) in the test on SF-539; < 0.01 µM (active) with DLD-1. Besides, the GI50 with ACHN was 0.0489 µM (active); in the test with Malme-3M, 0.0161 µM (active).
Consider `C1CN1c1nc(N2CC2)nc(N2CC2)n1`, for which the GI50 with OVCAR-5 was 11.5 µM (inactive); in the test with SNB-19 it was 6.65 µM (inactive); in the test on SK-MEL-2, 17.7 µM (inactive); with IGROV-1, 14.2 µM (inactive); in the test with SF-295 it was 2.37 µM (inactive); in the test with OVCAR-8, 7.55 µM (inactive). In addition, the GI50 with NCI-H460 is 0.41 µM (active); in the test on SK-MEL-28, 14.3 µM (inactive); with U-251, 3.92 µM (inactive); in the test on SN12C it was 2.95 µM (inactive); in the test with CAKI-1, 2.19 µM (inactive); in the test on LOX IMVI, 3.08 µM (inactive). The GI50 in the test with NCI-H226 is 8.24 µM (inactive); with SF-539 it was 2.68 µM (inactive); with DLD-1 it was 18.4 µM (inactive); with DU-145, 2.78 µM (inactive); in the test on MDA-N it was 12.1 µM (inactive); in the test on ACHN, 0.944 µM (active). Further, the GI50 in the test with Malme-3M is 11.7 µM (inactive).

(Values after ChEMBL document CHEMBL1201862, “PubChem BioAssay data set” (2004).)
